In US10316049B2, “Tank-binding kinase inhibitor compounds” (Gilead Sciences, Inc., priority 2015, dated 2019):

Legend:
[1] = biological target: T1, IKKε (Homo sapiens, UniProt Q14164); test: TR-FRET enzymatic activity assay, IKKε; type: biochemical; conditions: read-out: IKKϵ IC50; also: full length recombinant IKKε at 0.3 nM
T1 construct: TBK1 and IKKε were expressed and purified as full length recombinant proteins; made in house
T1 sequence (Q14164 1-716): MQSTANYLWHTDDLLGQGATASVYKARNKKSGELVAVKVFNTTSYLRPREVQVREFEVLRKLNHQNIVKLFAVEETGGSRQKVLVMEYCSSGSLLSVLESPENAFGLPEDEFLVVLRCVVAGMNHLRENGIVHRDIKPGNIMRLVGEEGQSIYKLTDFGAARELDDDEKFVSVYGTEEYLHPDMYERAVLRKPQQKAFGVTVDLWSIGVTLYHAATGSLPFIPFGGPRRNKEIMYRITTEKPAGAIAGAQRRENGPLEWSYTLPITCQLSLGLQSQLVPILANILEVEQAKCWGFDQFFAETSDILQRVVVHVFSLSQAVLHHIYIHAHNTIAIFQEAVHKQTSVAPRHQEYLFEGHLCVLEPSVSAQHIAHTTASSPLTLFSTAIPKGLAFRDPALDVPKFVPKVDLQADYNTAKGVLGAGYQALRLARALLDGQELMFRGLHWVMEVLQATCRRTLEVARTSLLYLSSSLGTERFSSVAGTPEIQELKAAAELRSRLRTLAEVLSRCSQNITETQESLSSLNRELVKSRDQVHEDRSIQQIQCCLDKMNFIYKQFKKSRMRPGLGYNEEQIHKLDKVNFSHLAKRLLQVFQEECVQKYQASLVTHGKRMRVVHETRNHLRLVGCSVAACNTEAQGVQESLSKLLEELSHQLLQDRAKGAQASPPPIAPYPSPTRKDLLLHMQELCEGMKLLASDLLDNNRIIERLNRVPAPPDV
Method in brief: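 IC50 values are geometric means of at least four determinations, fitted to a four-parameter curve after normalising to 1 μM staurosporine and DMSO. Signal: Eu-cryptate anti-phospho antibody plus 125 nM streptavidin-XL665 on a biotinylated peptide. Full-length recombinant enzyme reacted 240 min, 25 °C, then EDTA-quenched.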

[2] = biological target: T2, TBK1 (Homo sapiens, UniProt Q9UHD2); test: TR-FRET enzymatic activity assay, TBK1; type: biochemical; also: full length recombinant TBK1 at 2.5 nM
T2 construct: TBK1 and IKKε were expressed and purified as full length recombinant proteins; made in house
T2 sequence (Q9UHD2 1-729): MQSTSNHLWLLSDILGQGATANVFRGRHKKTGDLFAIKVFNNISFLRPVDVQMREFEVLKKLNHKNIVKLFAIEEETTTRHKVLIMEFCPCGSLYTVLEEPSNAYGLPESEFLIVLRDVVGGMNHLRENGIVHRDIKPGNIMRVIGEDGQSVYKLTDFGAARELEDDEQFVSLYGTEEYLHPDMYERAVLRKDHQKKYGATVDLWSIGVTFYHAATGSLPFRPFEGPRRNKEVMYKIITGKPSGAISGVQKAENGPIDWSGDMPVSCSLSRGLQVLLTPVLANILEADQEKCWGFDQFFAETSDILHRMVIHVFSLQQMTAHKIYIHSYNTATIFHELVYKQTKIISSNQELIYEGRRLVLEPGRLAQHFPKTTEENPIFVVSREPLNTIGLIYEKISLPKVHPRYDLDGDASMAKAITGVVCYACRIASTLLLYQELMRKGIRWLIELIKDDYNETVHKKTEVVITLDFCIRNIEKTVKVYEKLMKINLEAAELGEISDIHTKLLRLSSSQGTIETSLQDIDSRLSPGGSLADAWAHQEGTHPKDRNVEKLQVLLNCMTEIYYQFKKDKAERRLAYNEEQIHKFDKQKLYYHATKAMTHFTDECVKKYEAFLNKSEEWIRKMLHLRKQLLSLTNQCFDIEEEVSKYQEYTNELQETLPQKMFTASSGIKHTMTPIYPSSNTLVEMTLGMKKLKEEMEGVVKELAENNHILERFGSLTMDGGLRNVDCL
Method in brief: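 TR-FRET detected phosphorylation of a biotinylated serine/threonine peptide using 125 nM streptavidin XL665 plus europium-labelled anti-phospho antibody. Reactions with full-length recombinant kinase ran 240 min at 25 °C before EDTA quench. Values are geometric-mean IC50s (n ≥ 4) from four-parameter dose-response fits against staurosporine and DMSO controls.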

SMILES	IC50 [1]	IC50 [2]
N#Cc1cc(-c2ccnc(NC(=O)[C@H]3C[C@@H]3c3ccc(OC(F)(F)F)cc3)c2)ccc1OC1CCOCC1 (relative stereo) [Example 99, (1,2-trans)-N-(4-(3-cyano-4-((tetrahydro-2H-pyran-4-yl)oxy)phenyl)pyridin-2-yl)-2-(4-(trifluoromethoxy)phenyl)cyclopropane-1-carboxamide]	> 1000 nM	> 1000 nM
N#Cc1cc(-c2ccnc(NC(=O)C3CC3)c2)ccc1N1CC[C@@H](O)C1 [Example 17, (R)—N-(4-(3-cyano-4-(3-hydroxypyrrolidin-1-yl)phenyl)pyridin-2-yl)cyclopropanecarboxamide]	232 nM	41.6 nM
N#Cc1cc(-c2ccnc(NC(=O)C3CCCCC3)c2)ccc1OC1CCOCC1 [Example 1, N-(4-(3-cyano-4-((tetrahydro-2H-pyran-4-yl)oxy)phenyl)pyridin-2-yl)cyclohexanecarboxamide]	331 nM	755 nM
CC(Oc1ccc(-c2cc(NC(=O)C3CC3)ncn2)cc1C#N)C(F)(F)F (stereo not drawn) [Example 106, N-(6-(3-cyano-4-((1,1,1-trifluoropropan-2-yl)oxy)phenyl)pyrimidin-4-yl)cyclopropanecarboxamide]	> 1000 nM	301 nM
N#Cc1cc(-c2ccnc(NC(=O)C3(F)CC3)c2)ccc1O[C@H]1CCN(C(=O)CO)C[C@H]1F [Example 78, N-(4-(3-Cyano-4-(((3R,4S)-3-fluoro-1-(2-hydroxyacetyl)piperidin-4-yl)oxy)phenyl)pyridin-2-yl)-1-fluorocyclopropane-1-carboxamide]	294 nM	400 nM
Cc1noc([C@@H]2C[C@H]2C(=O)Nc2cc(-c3ccc(OC4CCOCC4)c(C#N)c3)ccn2)n1 [Example 108, (1R,2R)—N-(4-(3-cyano-4-((tetrahydro-2H-pyran-4-yl)oxy)phenyl)pyridin-2-yl)-2-(3-methyl-1,2,4-oxadiazol-5-yl)cyclopropane-1-carboxamide]	322 nM	186 nM
N#Cc1cc(-c2ccnc(NC(=O)[C@H]3C[C@H]3F)c2)ccc1N1CCCC1 [Example 64, (1R,2R)—N-(4-(3-cyano-4-(pyrrolidin-1-yl)phenyl)pyridin-2-yl)-2-fluorocyclopropane-1-carboxamide]	578 nM	85.3 nM

Compounds with a lower IC50 [1], results first:

IC50 [1]	IC50 [2]	SMILES
167 nM	47.6 nM	N#Cc1cc(-c2cc(NC(=O)C3CC3)ncn2)ccc1O[C@H]1CCN(C(=O)c2cnco2)C[C@H]1F [Example 33, N-(6-(3-cyano-4-(((3R,4S)-3-fluoro-1-(oxazole-5-carbonyl)piperidin-4-yl)oxy)phenyl)pyrimidin-4-yl)cyclopropanecarboxamide]
115 nM	28.1 nM	N#Cc1cc(-c2ccnc(NC(=O)C3CC3)c2)ccc1OC1CCOCC1 [Example 2, N-(4-(3-cyano-4-((tetrahydro-2H-pyran-4-yl)oxy)phenyl)pyridin-2-yl)cyclopropanecarboxamide]
52.6 nM	7 nM	N#Cc1cc(-c2cc(NC(=O)C3CC3)ncn2)ccc1O[C@H]1CCN(C(=O)[C@@H]2COC(=O)N2)CC1(F)F [Example 155, N-(6-(3-cyano-4-(((S)-3,3-difluoro-1-((S)-2-oxooxazolidine-4-carbonyl)piperidin-4-yl)oxy)phenyl)pyrimidin-4-yl)cyclopropanecarboxamide]
39.3 nM	12.8 nM	C[C@H](N)C(=O)OCC(=O)N1CC[C@H](Oc2ccc(-c3cc(NC(=O)C4CC4)ncn3)cc2C#N)C(F)(F)C1 [Example 159, 2-((S)-4-(2-cyano-4-(6-(cyclopropanecarboxamido)pyrimidin-4-yl)phenoxy)-3,3-difluoropiperidin-1-yl)-2-oxoethyl L-Alaninate]
117 nM	51.4 nM	N#Cc1cc(-c2ccnc(NC(=O)[C@@H]3C[C@@H]3c3ccccc3)c2)ccc1O[C@H]1CCN(C(=O)CO)C[C@H]1F (stereo in doubt) [Example 71, (1,2-cis)-N-(4-(3-Cyano-4-(((3R,4S)-3-fluoro-1-(2-hydroxyacetyl)piperidin-4-yl)oxy)phenyl)pyridin-2-yl)-2-phenylcyclopropane-1-carboxamide]
